# Peptide text beside a SMILES is read from it. * marks the point of attachment. X1 = C[N+](C)(CCCC(=O)*)CCCS(=O)(=O)[O-]
# Assay: Aqueous solubility of zwitterion-modified hydrophobic peptides in de-ionized water
# Type: physicochemical
# Conditions: concentration giving a clear solution, peptide labeled at the α-amino group with Z3-PFP
# Protocol: Specifically, four representative hydrophobic peptides, penta(phenylalanine), a tetrapeptide with the sequence Phe-Gly-Gly-Phe, penta(leucine) and penta(isoleucine) were all labeled at the α-amino group with the amine-reactive, zwitterionic reagent Z3-PFP (compound 2c in Figure 1). One such labeling experiment is illustrated in Example 12. The zwitterion-modified peptides were purified by chromatography and their aqueous solubility was assessed by dissolving them in de-ionized water at concentrations that gave clear homogenous solutions. […] Penta(phenylalanine) modified by the zwitterion-containing compound Z3-PFP, compound 2c, dissolved in water and provided a clear solution at a concentration of ~0.5 mM.
row,solubility [µM],SMILES
1,≥ 100,CC[C@H](C)[C@H](NC(=O)[C@@H](NC(=O)[C@@H](NC(=O)[C@@H](NC(=O)[C@@H](NC(=O)CCC[N+](C)(C)CCCS(=O)(=O)[O-])[C@@H](C)CC)[C@@H](C)CC)[C@@H](C)CC)[C@@H](C)CC)C(=O)O (X1-IIIII-OH)
2,≥ 3000,C[N+](C)(CCCC(=O)N[C@@H](Cc1ccccc1)C(=O)NCC(=O)NCC(=O)N[C@@H](Cc1ccccc1)C(=O)O)CCCS(=O)(=O)[O-] (X1-FGGF-OH)
3,≥ 100,CC(C)C[C@H](NC(=O)[C@H](CC(C)C)NC(=O)[C@H](CC(C)C)NC(=O)[C@H](CC(C)C)NC(=O)[C@H](CC(C)C)NC(=O)CCC[N+](C)(C)CCCS(=O)(=O)[O-])C(=O)O (X1-LLLLL-OH)
4,≥ 500,C[N+](C)(CCCC(=O)N[C@@H](Cc1ccccc1)C(=O)N[C@@H](Cc1ccccc1)C(=O)N[C@@H](Cc1ccccc1)C(=O)N[C@@H](Cc1ccccc1)C(=O)N[C@@H](Cc1ccccc1)C(=O)O)CCCS(=O)(=O)[O-] (X1-FFFFF-OH)
